Patent publication US9668497B2, “Flavor-enhancing compounds” (INTERNATIONAL FLAVORS & FRAGRANCES INC., priority 2015, dated 2017)
Blank lines part the entries; values can stand above or below the compound they belong to.

Experiments:
[1] = Cooling enhancement in WS-3 (30 ppm); type: in vivo
Method: (§1) The cooling enhancement of Formula I and Na-Formula I in cooling compounds including WS-5 (30 ppm), WS-23 (35 ppm), menthyl lactate (35 ppm), WS-3 (30 ppm) and Cooler 2 (10 ppm) was also evaluated.

[2] = Cooling enhancement in menthol (35 ppm), trained sensory panel; type: in vivo
Method: The flavor compositions of menthol (35 ppm) combined with 7,8-dihydroxy-2-phenyl-4H-chromen-4-one (Formula I) at different concentrations were evaluated by a trained sensory panel. Sensory results are reported in the following. […]

[3] = Cooling enhancement in Cooler 2 (10 ppm); type: in vivo
Method: as §1

[4] = Cooling enhancement in menthyl lactate (35 ppm); type: in vivo
Method: as §1

[5] = Sensory description of Formula I alone in water; type: in vivo; details: 20 ppm in water
[6] = Cooling enhancement in WS-23 (35 ppm); type: in vivo
Method: as §1

[7] = Solubility in aqueous solutions; type: physicochemical
[8] = Cooling enhancement in WS-5 (30 ppm); type: in vivo
Method: as §1

[9] = Cooling enhancement in various cooling compounds (summary of Example VII); type: in vivo; details: WS-5, WS-23, menthyl lactate, WS-3, Cooler 2; table footnote
Method: as §1

Solubility in aqueous solutions [7]: sparingly soluble
Compound: O=c1cc(-c2ccccc2)oc2c(O)c(O)ccc12 [Formula I, 7,8-dihydroxy-2-phenyl-4H-chromen-4-one]
Evaluation on the Cooling Enhancement ([1]; test substance 1 ppm): Marginal
Evaluation on the Cooling Enhancement ([1]; test substance 2 ppm): Marginal
Evaluation on the Cooling Enhancement ([1]; test substance 5 ppm): Marginal
Evaluation on the Cooling Enhancement ([1]; test substance 10 ppm): ~15% enhancement
Evaluation on the Cooling Enhancement ([1]; test substance 20 ppm): ~20% enhancement
Evaluation on the Cooling Enhancement ([1]; test substance 30 ppm): ~20% enhancement,
Evaluation on the Cooling Enhancement ([1]; test substance 40 ppm): Enhancement,
Evaluation on the Cooling Enhancement ([1]; test substance 50 ppm): Enhancement,
Evaluation on the Cooling Enhancement ([1]; test substance 100 ppm): Enhancement,
Cooling enhancement, overall statement ([2]; menthol 35 ppm, table footnote): Formula I enhanced the cooling sensation of menthol.
Flavor Profile: cooling enhancement ([2]; menthol 35 ppm, test substance 1 ppm): Marginal cooling enhancement
Flavor Profile: cooling enhancement ([2]; menthol 35 ppm, test substance 2 ppm): Marginal cooling enhancement
Flavor Profile: cooling enhancement ([2]; menthol 35 ppm, test substance 5 ppm): Marginal cooling enhancement
Flavor Profile: cooling enhancement ([2]; menthol 35 ppm, test substance 10 ppm): ~10% cooling enhancement
Flavor Profile: cooling enhancement ([2]; menthol 35 ppm, test substance 20 ppm): ~20% cooling enhancement,
Flavor Profile: cooling enhancement ([2]; menthol 35 ppm, test substance 30 ppm): ~20% cooling enhancement, slight
Flavor Profile: cooling enhancement ([2]; menthol 35 ppm, test substance 40 ppm): Cooling enhancement, reduced
Flavor Profile: cooling enhancement ([2]; menthol 35 ppm, test substance 50 ppm): Cooling enhancement, harsh
Flavor Profile: cooling enhancement ([2]; menthol 35 ppm, test substance 100 ppm): Cooling enhancement, harsh
Evaluation on the Cooling Enhancement ([3]; test substance 1 ppm): Marginal
Evaluation on the Cooling Enhancement ([3]; test substance 2 ppm): Marginal
Evaluation on the Cooling Enhancement ([3]; test substance 5 ppm): Marginal
Evaluation on the Cooling Enhancement ([3]; test substance 10 ppm): ~10% enhancement
Evaluation on the Cooling Enhancement ([3]; test substance 20 ppm): ~10% enhancement
Evaluation on the Cooling Enhancement ([3]; test substance 30 ppm): ~20% enhancement,
Evaluation on the Cooling Enhancement ([3]; test substance 40 ppm): Enhancement,
Evaluation on the Cooling Enhancement ([3]; test substance 50 ppm): Enhancement,
Evaluation on the Cooling Enhancement ([3]; test substance 100 ppm): Enhancement,
Evaluation on the Cooling Enhancement ([4]; test substance 1 ppm): Marginal
Evaluation on the Cooling Enhancement ([4]; test substance 2 ppm): Marginal
Evaluation on the Cooling Enhancement ([4]; test substance 5 ppm): Marginal
Evaluation on the Cooling Enhancement ([4]; test substance 10 ppm): ~10% enhancement
Evaluation on the Cooling Enhancement ([4]; test substance 20 ppm): ~20% enhancement
Evaluation on the Cooling Enhancement ([4]; test substance 30 ppm): ~20% enhancement,
Evaluation on the Cooling Enhancement ([4]; test substance 40 ppm): Enhancement,
Evaluation on the Cooling Enhancement ([4]; test substance 50 ppm): Enhancement,
Evaluation on the Cooling Enhancement ([4]; test substance 100 ppm): Enhancement,
Cooling property [5]: no cooling property
Evaluation on the Cooling Enhancement ([6]; test substance 1 ppm): Marginal
Evaluation on the Cooling Enhancement ([6]; test substance 2 ppm): Marginal
Evaluation on the Cooling Enhancement ([6]; test substance 5 ppm): Marginal
Evaluation on the Cooling Enhancement ([6]; test substance 10 ppm): ~10% enhancement
Evaluation on the Cooling Enhancement ([6]; test substance 20 ppm): ~20% enhancement
Evaluation on the Cooling Enhancement ([6]; test substance 30 ppm): ~20% enhancement,
Evaluation on the Cooling Enhancement ([6]; test substance 40 ppm): Enhancement,
Evaluation on the Cooling Enhancement ([6]; test substance 50 ppm): Enhancement,
Evaluation on the Cooling Enhancement ([6]; test substance 100 ppm): Enhancement,
Evaluation on the Cooling Enhancement ([8]; test substance 1 ppm): Marginal
Evaluation on the Cooling Enhancement ([8]; test substance 2 ppm): Marginal
Evaluation on the Cooling Enhancement ([8]; test substance 5 ppm): Marginal
Evaluation on the Cooling Enhancement ([8]; test substance 10 ppm): ~15% enhancement
Evaluation on the Cooling Enhancement ([8]; test substance 20 ppm): ~20% enhancement
Evaluation on the Cooling Enhancement ([8]; test substance 30 ppm): ~20% enhancement,
Evaluation on the Cooling Enhancement ([8]; test substance 40 ppm): Enhancement,
Evaluation on the Cooling Enhancement ([8]; test substance 50 ppm): Enhancement,
Evaluation on the Cooling Enhancement ([8]; test substance 100 ppm): Enhancement,
Cooling enhancement, overall statement [9]: Formula I and Na-Formula I enhanced the cooling sensation of various cooling compounds.

Compound: CC1CCC(C(C)C)C(O)C1 (centres unmarked) [Menthol, menthol, reference compound]
Flavor Profile ([2]; menthol 35 ppm alone, 0 ppm enhancer): Cooling sensation
